The source of these data is ChEMBL document CHEMBL1909046, “DrugMatrix in vitro pharmacology data”.

Test [1] is described as follows: DRUGMATRIX: ATPase, Na+/K+ enzyme inhibition (substrate: ATP). The test is classed as tissue-based, Sus scrofa, Heart. To be noted: Not Active = under 50% inhibition at 10 µM.
In test [2] the target is Melanocortin receptor 5 (Homo sapiens, UniProt P33032). The class given is cell membranes, Membrane. The settings on record: hek293. Also: in other assays of this panel Not Active means under 50% inhibition at 10 µM.
Melanocortin receptor 5, sequence (P33032 whole entry): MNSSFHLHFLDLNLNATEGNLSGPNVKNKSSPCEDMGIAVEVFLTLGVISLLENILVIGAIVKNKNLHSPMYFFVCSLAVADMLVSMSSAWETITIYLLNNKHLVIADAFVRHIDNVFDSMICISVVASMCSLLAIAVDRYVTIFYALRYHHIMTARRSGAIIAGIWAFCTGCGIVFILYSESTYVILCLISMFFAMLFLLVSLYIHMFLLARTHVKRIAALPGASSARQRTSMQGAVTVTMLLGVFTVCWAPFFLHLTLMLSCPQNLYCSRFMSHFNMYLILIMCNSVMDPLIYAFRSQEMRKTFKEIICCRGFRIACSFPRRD
Test [3] concerns the target Beta-1 adrenergic receptor (Homo sapiens, UniProt P08588). As to the kind of experiment: DRUGMATRIX: Adrenergic beta1 radioligand binding (ligand: [125I] Cyanopindolol). The test is classed as cell membranes, CHO-K1, Membrane. The settings on record: cho-k1; Not Active = under 50% inhibition at 10 µM.
Test [4] concerns the target T1, Adenosine receptor A1 (Homo sapiens, UniProt P30542).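 Also: radioligand binding assay at the adenosine A1 receptor, with DPCPX serving as the labelled ligand; in other assays of this panel Not Active means under 50% inhibition at 10 µM.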
T1 sequence (P30542 whole entry): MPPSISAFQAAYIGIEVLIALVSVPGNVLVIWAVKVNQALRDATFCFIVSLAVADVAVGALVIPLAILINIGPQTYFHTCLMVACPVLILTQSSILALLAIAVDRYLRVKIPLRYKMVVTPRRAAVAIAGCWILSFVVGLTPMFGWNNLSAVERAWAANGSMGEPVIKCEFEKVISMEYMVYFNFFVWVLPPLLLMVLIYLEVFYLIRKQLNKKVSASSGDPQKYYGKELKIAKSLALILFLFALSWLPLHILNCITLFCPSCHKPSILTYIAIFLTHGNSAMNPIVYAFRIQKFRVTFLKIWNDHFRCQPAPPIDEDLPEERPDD
The test is classed as cell membranes, Membrane. The settings on record: cho.

For test [5], the target named is 5-hydroxytryptamine receptor 4 (Cavia porcellus, UniProt O70528). The test is classed as cell membranes, Dunkin-Hartley, Striatum, Membrane. To be noted: for Ki: read-out: Ki. As to all read-outs here: in other assays of this panel Not Active means under 50% inhibition at 10 µM.
5-hydroxytryptamine receptor 4, sequence (O70528 whole entry): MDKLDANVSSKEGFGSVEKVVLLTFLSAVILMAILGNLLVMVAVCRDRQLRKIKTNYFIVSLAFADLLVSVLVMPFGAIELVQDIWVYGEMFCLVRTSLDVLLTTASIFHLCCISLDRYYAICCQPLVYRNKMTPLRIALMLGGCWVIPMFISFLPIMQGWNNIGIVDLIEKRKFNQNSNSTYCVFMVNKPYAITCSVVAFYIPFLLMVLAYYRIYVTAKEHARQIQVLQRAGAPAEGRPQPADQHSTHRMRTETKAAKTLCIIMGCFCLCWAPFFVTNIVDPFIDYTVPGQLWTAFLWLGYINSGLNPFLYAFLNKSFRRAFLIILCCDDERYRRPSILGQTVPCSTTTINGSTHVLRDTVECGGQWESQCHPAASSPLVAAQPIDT
The target in test [6] is T2, Neuropeptide Y receptor type 1 (Homo sapiens, UniProt P25929). Also: in other assays of this panel Not Active means under 50% inhibition at 10 µM.
T2 sequence (P25929 whole entry): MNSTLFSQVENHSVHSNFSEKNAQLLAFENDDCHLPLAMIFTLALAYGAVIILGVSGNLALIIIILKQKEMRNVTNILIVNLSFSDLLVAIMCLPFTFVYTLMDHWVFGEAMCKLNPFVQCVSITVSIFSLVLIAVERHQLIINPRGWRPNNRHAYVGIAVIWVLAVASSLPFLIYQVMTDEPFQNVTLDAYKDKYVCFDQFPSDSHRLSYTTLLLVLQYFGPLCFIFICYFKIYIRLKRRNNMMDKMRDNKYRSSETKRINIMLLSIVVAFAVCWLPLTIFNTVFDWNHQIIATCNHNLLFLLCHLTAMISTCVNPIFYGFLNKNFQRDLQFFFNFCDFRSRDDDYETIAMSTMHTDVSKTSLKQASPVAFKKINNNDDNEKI
The test is classed as cell membranes, Membrane. The settings on record: sk-n-mc.

In test [7] the target is Tyrosine-protein kinase Lck (Homo sapiens, UniProt P06239). As to the kind of experiment: DRUGMATRIX: Protein Tyrosine Kinase, LCK enzyme inhibition (substrate: Poly(Glu:Tyr)). The test is classed as cell-based, Insect cells. The settings on record: Not Active = under 50% inhibition at 10 µM.
Tyrosine-protein kinase Lck, sequence (P06239 whole entry): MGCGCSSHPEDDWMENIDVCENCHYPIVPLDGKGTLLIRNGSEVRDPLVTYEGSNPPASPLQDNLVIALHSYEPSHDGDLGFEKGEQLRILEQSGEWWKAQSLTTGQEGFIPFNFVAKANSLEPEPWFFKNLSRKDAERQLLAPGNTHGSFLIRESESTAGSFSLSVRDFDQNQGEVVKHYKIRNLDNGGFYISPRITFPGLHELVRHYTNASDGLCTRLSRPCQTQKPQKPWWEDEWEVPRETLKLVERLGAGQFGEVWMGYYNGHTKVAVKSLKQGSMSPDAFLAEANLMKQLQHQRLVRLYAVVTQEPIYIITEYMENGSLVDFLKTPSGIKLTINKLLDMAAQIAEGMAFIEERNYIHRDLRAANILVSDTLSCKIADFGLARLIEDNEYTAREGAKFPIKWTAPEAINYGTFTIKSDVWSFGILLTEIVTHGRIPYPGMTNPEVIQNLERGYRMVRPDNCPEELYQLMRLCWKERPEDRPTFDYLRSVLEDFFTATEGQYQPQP

Beta-1 adrenergic receptor, sequence (P08588 whole entry): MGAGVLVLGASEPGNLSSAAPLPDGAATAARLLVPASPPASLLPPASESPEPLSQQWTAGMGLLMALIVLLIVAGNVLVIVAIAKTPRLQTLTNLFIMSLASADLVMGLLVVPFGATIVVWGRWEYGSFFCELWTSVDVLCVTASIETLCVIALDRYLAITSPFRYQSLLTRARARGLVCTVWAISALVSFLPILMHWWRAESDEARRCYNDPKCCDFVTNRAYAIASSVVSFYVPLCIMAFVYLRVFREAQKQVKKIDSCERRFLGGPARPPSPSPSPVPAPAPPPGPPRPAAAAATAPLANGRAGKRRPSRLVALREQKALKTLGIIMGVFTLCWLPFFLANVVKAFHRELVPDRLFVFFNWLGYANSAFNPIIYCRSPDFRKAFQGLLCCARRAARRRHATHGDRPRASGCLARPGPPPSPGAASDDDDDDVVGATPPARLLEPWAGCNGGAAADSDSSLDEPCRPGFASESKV

What is called IC50 is the concentration that inhibits the measured activity by half. As a reminder, the Ki is a measure of affinity in units of concentration, obtained from inhibition or displacement. As to `C/C=C/C[C@@H](C)[C@@H](O)[C@H]1C(=O)N[C@@H](CC)C(=O)N(C)CC(=O)N(C)[C@@H](CC(C)C)C(=O)N[C@@H](C(C)C)C(=O)N(C)[C@@H](CC(C)C)C(=O)N[C@@H](C)C(=O)N[C@H](C)C(=O)N(C)[C@@H](CC(C)C)C(=O)N(C)[C@@H](CC(C)C)C(=O)N(C)[C@@H](C(C)C)C(=O)N1C` [CYCLOSPORINE], the IC50 entry in test [1], in test [2], in test [3], in test [4], in test [5] and in test [6] was “Not Active” each time. The IC50 entry in test [7] (insect cells) is reported as “Not Active”. Also, the Ki entry in test [1] is recorded as “Not Active”.

With `CN(C)/N=N/c1[nH]cnc1C(N)=O` [DACARBAZINE], the IC50 entry in test [1], in test [2], in test [3], in test [4], in test [5] and in test [6] was “Not Active” in each case. Also, the concentration for half-maximal inhibition (IC50) result in test [7] (insect cells) is given as “Not Active”. In test [1], the Ki result is “Not Active”.

Regarding `COc1ccc2c(c1)[C@]13CCCC[C@@H]1[C@H](C2)N(C)CC3` [DEXTROMETHORPHAN], the IC50 result in test [1], in test [2], in test [3], in test [4], in test [5] and in test [6] was “Not Active” each time. In test [7] (insect cells), the half-inhibitory concentration (IC50) result is recorded as “Not Active”. Also, the Ki entry in test [1] is recorded as “Not Active”.

`CC(=O)Nc1c(I)c(NC(C)=O)c(I)c(C(=O)O)c1I` [DIATRIZOIC ACID]: the half-inhibitory concentration (IC50) result in test [1], in test [2], in test [3], in test [4], in test [5] and in test [6] was “Not Active” in each case. In test [7] (insect cells), the IC50 result is on record as “Not Active”. Moreover, in test [1], the Ki result is given as “Not Active”.

With `COP(=O)(OC)OC=C(Cl)Cl` [DICHLORVOS], the IC50 entry in test [1], in test [2], in test [3], in test [4], in test [5] and in test [6] was “Not Active” each time. Besides, the IC50 entry in test [7] (insect cells) is on record as “Not Active”. For the same compound, the Ki result in test [1] is “Not Active”.

As for `O=C(O)Cc1ccccc1Nc1c(Cl)cccc1Cl` [DICLOFENAC], the IC50 result in test [1], in test [2], in test [3], in test [4], in test [5] and in test [6] was “Not Active” throughout. For the same compound, the IC50 result in test [7] (insect cells) is on record as “Not Active”. Further, in test [1], the Ki entry is “Not Active”.

With `C[C@H]1O[C@@H](O[C@H]2[C@@H](O)C[C@H](O[C@H]3[C@@H](O)C[C@H](O[C@H]4CC[C@@]5(C)[C@H](CC[C@@H]6[C@@H]5CC[C@]5(C)[C@@H](C7=CC(=O)OC7)CC[C@]65O)C4)O[C@@H]3C)O[C@@H]2C)C[C@H](O)[C@@H]1O` [DIGITOXIN], the IC50 in test [1] (read-out: IC50) is 0.225 µM; in test [2], “Not Active”; in test [3], “Not Active”; in test [4], “Not Active”; in test [5] it was “Not Active”; in test [6], “Not Active”. In test [7] (insect cells), the IC50 result was “Not Active”.

Turning to `CCN1CC(CCN2CCOCC2)C(c2ccccc2)(c2ccccc2)C1=O` (centres undefined) [DOXAPRAM], the IC50 result in test [1], in test [2], in test [3], in test [4], in test [5] and in test [6] was “Not Active” in each case. Moreover, the IC50 result in test [7] (insect cells) is listed as “Not Active”. Besides, the Ki entry in test [1] is recorded as “Not Active”.

Consider `Cn1c(=O)c2c(ncn2CC2OCCO2)n(C)c1=O` [DOXOFYLLINE], for which the half-maximal inhibitory concentration (IC50) entry in test [1], in test [2], in test [3], in test [4], in test [5] and in test [6] was “Not Active” in each case. In addition, the IC50 result in test [7] (insect cells) is “Not Active”. Also, the Ki entry in test [1] was “Not Active”.

As to `COc1cccc2c1C(=O)c1c(O)c3c(c(O)c1C2=O)C[C@@](O)(C(=O)CO)C[C@@H]3O[C@H]1C[C@H](N)[C@H](O)[C@H](C)O1` [DOXORUBICIN], the IC50 entry in test [1] was “Not Active”; in test [2] it was “Not Active”; in test [3], “Not Active”; in test [4], “Not Active”; in test [5] (read-out: IC50), 12.5 µM; in test [6], “Not Active”. Further, the IC50 in test [7] (read-out: IC50) was determined as 31.9 µM. Besides, the values for the Ki entry in test [1] and in test [5] were “Not Active” and 2.08 µM, respectively.

Consider `COc1cccc2c1C(=O)c1c(O)c3c(c(O)c1C2=O)C[C@@](O)(C(=O)CO)C[C@@H]3O[C@H]1C[C@H](N)[C@@H](O)[C@H](C)O1` [EPIRUBICIN], for which the IC50 result in test [1] is “Not Active”; in test [2], “Not Active”; in test [3], “Not Active”; in test [4], “Not Active”; in test [5] (read-out: IC50) it was 7.94 µM; in test [6], “Not Active”. Further, in test [7] (insect cells), the IC50 entry is reported as “Not Active”. Besides, the Ki entry is “Not Active” in test [1] and 1.32 µM in test [5].

For the compound `C[C@]12CC[C@@H]3c4ccc(OC(=O)c5ccccc5)cc4CC[C@H]3[C@@H]1CC[C@@H]2O` [ESTRADIOL BENZOATE], the IC50 entry in test [1], in test [2], in test [3], in test [4], in test [5] and in test [6] was “Not Active” throughout. For the same compound, the IC50 result in test [7] (insect cells) is reported as “Not Active”. Besides, the Ki entry in test [1] is “Not Active”.

Turning to `C[C@]12CC[C@@H]3c4ccc(O)cc4CC[C@H]3[C@@H]1CC[C@@H]2O` [ESTRADIOL], the IC50 entry in test [1], in test [2], in test [3], in test [4], in test [5] and in test [6] was “Not Active” throughout. Further, in test [7] (insect cells), the IC50 result is reported as “Not Active”. Moreover, the Ki result in test [1] was “Not Active”.

As for `CC[C@@H](CO)NCCN[C@@H](CC)CO` [ETHAMBUTOL], the IC50 result in test [1], in test [2], in test [3], in test [4], in test [5] and in test [6] was “Not Active” in each case. Besides, the IC50 entry in test [7] (insect cells) is “Not Active”. Besides, the inhibitory constant (Ki) result in test [1] is listed as “Not Active”.

As to `CC1(C)O[C@@H]2C[C@H]3[C@@H]4C[C@H](F)C5=CC(=O)C=C[C@]5(C)[C@H]4[C@@H](O)C[C@]3(C)[C@]2(C(=O)CO)O1` [FLUNISOLIDE], the IC50 entry in test [1], in test [2], in test [3], in test [4], in test [5] and in test [6] was “Not Active” throughout. In addition, in test [7] (insect cells), the IC50 result is given as “Not Active”. Besides, in test [1], the inhibition constant (Ki) entry is on record as “Not Active”.

Regarding `CC1(C)O[C@@H]2C[C@H]3[C@@H]4C[C@H](F)C5=CC(=O)C=C[C@]5(C)[C@@]4(F)[C@@H](O)C[C@]3(C)[C@]2(C(=O)CO)O1` [FLUOCINOLONE ACETONIDE], the IC50 result in test [1], in test [2], in test [3], in test [4], in test [5] and in test [6] was “Not Active” throughout. The IC50 result in test [7] (insect cells) was “Not Active”. For the same compound, the Ki result in test [1] is “Not Active”.
